Reference: ChEMBL document CHEMBL3045494, “Inhibitory effect and structureactivity relationship of some Biginelli-type pyrimidines against HSV-1” (Med Chem Res, 2013)
The source made the active and inactive calls.

Assays:
[1] = Selectivity index, ratio of CC25 for African green monkey Vero cells to IC25 for Herpes simplex virus 1 KOS; assay type: toxicity, cell-based; details: read-out: Selectivity Index
[2] = Therapeutic index, ratio of CC50 for African green monkey Vero cells to IC50 for Herpes simplex virus 1 KOS; assay type: cell-based; details: read-out: Ratio CC50/IC50
[3] = (§1) Cytotoxicity against Chlorocebus aethiops (African green monkey) Vero cells after 72 hr by XTT assay; assay type: cell-based; details: chlorocebus sabaeus, Vero cells
[4] = tested on: Vero; test: as §1; assay type: cell-based; details: chlorocebus sabaeus, vero, 72 h
[5] = tested on: Human alphaherpesvirus 1; test: Antiviral activity against Human herpesvirus 1 strain KOS infected Vero cells after 72 hr by plaque reduction assay; assay type: functional, organism-based
[6] = Human alphaherpesvirus 1, KOS, Vero, 72 h
[7] = Human alphaherpesvirus 1, KOS, Vero, 72 h, read-out: IC50

SMILES	IC50 ([5]; vero)	IC50 [5, 7] [µM]	selectivity ratio [1]	selectivity ratio [2]	CC50 at 72 h [3] [µM]	CC25 [4]	IC25 [5]	IC25 [5, 6] [µM]	CC50 [4]
CC1=C(C(=O)OC(C)(C)C)C(c2cccs2)NC(=O)N1 (stereo unspecified)	Not Active		< 1	< 1	> 100	76.7 µM	inactive		
CC1=C(C(=O)Nc2ccc(Cl)cc2)C(c2cccs2)NC(=O)N1 (stereo unspecified)		59.7	7.1	> 1.6	> 100	83.2 µM		11.7	
CC1=C(C(=O)Nc2ccc(F)cc2)C(c2ccccc2)NC(=O)N1 (stereo unspecified)		> 100	48.6	> 1	> 100	43.8 µM		0.9	
COC(=O)C1=C(C)NC(=S)NC1c1ccc(Br)cc1 (stereo unspecified)		82.7	0.8	1.22	97.2	69.1 µM		67.7	
CC1=C(C(=O)Nc2cccnc2)C(c2cccs2)NC(=O)N1 (stereo unspecified)	Not Active		< 1	< 1	> 100	> 100 µM	inactive		
CCOC(=O)C1=C(C)NC(=O)NC1c1ccc(F)cc1 (stereo unspecified)	Not Active		1	1		Non-toxic	inactive		Non-toxic
CC1=C(C(=O)Oc2ccccc2)C(c2ccccc2)NC(=S)N1 (stereo unspecified)		> 100	> 1.1	> 1		Non-toxic		93.2	Non-toxic
CC1=C(C(=O)Nc2ccc(Br)cc2)C(c2ccccc2)NC(=O)N1 (stereo unspecified)		43.3	356	> 2.3	> 100	71.3 µM		0.2	
CCOC(=O)C1=C(C)NC(=O)NC1c1ccccc1 (stereo unspecified)	Not Active		> 1	1		Non-toxic		133	Non-toxic
COC(=O)C1=C(C)NC(=O)NC1c1ccc(F)cc1 (stereo unspecified)	Not Active		1	1		Non-toxic	inactive		Non-toxic
CCCOC(=O)C1=C(C)NC(=S)NC1c1cccs1 (stereo unspecified)		7.9	0.3	2.9	23.6	0.5 µM		1.5	
CCOC(=O)C1=C(C)N(C)C(=O)NC1c1ccc(F)cc1 (stereo unspecified)	Not Active		> 1	1		Non-toxic		99	Non-toxic
CC1=C(C(=O)NC2CCCCC2)C(c2ccccc2)NC(=O)N1 (stereo unspecified)		> 100	38	> 1	> 100	7.6 µM		0.2	

The next lines start with results.

IC50 ([5]; vero)	IC50 [5, 7] [µM]	SMILES	selectivity ratio [1]	selectivity ratio [2]	CC50 at 72 h [3] [µM]	CC25 [4]	IC25 [5]	IC25 [5, 6] [µM]	CC50 [4]
	46.1	CC1=C(C(=O)Nc2ccccc2Cl)C(c2cccc([N+](=O)[O-])c2)NC(=O)N1 (stereo unspecified)	> 1000	> 2.1		Non-toxic		0.1	Non-toxic
	67.4	CC1=C(C(=O)Nc2ccccc2Cl)C(c2ccccc2Cl)NC(=O)N1 (stereo unspecified)	> 1000	> 1.4		Non-toxic		0.1	Non-toxic
	> 100	CC1=C(C(=O)Nc2ccccc2Cl)C(C(C)c2ccccc2)NC(=O)N1 (stereo unspecified)	0.07	< 1	91.5	1.7 µM		21.3	
	13	CC1=C(C(=O)Nc2ccccc2Cl)C(c2ccc(Cl)cc2)NC(=O)N1 (stereo unspecified)	> 625	> 6.6		Non-toxic		0.16	Non-toxic
	95.4	CC1=C(C(=O)Nc2ccccc2Cl)C(c2cccc(Br)c2)NC(=O)N1 (stereo unspecified)	34.1	> 1	> 100	54.7 µM		1.6	
	63.6	COc1ccc(C2NC(=O)NC(C)=C2C(=O)Nc2ccccc2Cl)cc1 (stereo unspecified)	25.1	> 1.5	> 100	17.6 µM		0.7	
	> 100	CC1=C(C(=O)Nc2ccccc2Cl)C(c2ccccc2Cl)NC(=S)N1 (stereo unspecified)	35	> 1	> 100	24.5 µM		0.7	
Not Active		CC1=C(C(=O)Nc2ccccc2Cl)C(c2cnc(CS)n2NCc2ccccc2)NC(=O)N1 (stereo unspecified)	< 1	< 1	> 100	> 100 µM	inactive		
